What was measured:
Assay in all cases: apparent dissociation constant (pKDapp, Kinobeads competition, Cheng-Prusoff corrected) (-log10 M); higher = tighter binding
MELK = MELK (UniProt Q14680); details: affinity matrix / lysate: Kinobeads, mixed HEK293/K-562/placenta lysate
ERN1 = ERN1 (UniProt O75460); details: affinity matrix / lysate: Kinobeads, mixed HEK293/K-562/placenta lysate
PIP5K3 = PIP5K3 (UniProt Q9Y2I7); details: affinity matrix / lysate: Kinobeads, mixed HEK293/K-562/placenta lysate
MAP3K4 = MAP3K4 (UniProt Q9Y6R4); details: affinity matrix / lysate: Kinobeads, mixed HEK293/K-562/placenta lysate
MAP3K15 = MAP3K15 (UniProt Q6ZN16); details: affinity matrix / lysate: Kinobeads, mixed HEK293/K-562/placenta lysate
RPS6KB1 = RPS6KB1 (UniProt P23443); details: affinity matrix / lysate: Kinobeads, mixed HEK293/K-562/placenta lysate
MAP2K1 = MAP2K1 (UniProt Q02750); details: affinity matrix / lysate: Kinobeads, mixed HEK293/K-562/placenta lysate
PIK3CG = PIK3CG (UniProt P48736); details: affinity matrix / lysate: Lipid Kinobeads, mixed HeLa/Jurkat/K-562 lysate
MAST2 = MAST2 (UniProt Q6P0Q8); details: affinity matrix / lysate: Kinobeads, mixed HEK293/K-562/placenta lysate
IKBKE = IKBKE (UniProt Q14164); details: affinity matrix / lysate: Kinobeads, mixed HEK293/K-562/placenta lysate
EPHA1 = EPHA1 (UniProt P21709); details: affinity matrix / lysate: Kinobeads, mixed HEK293/K-562/placenta lysate
PI4KA = PI4KA (UniProt P42356)
EIF2AK4 = EIF2AK4 (UniProt Q9P2K8); details: affinity matrix / lysate: Kinobeads, mixed HEK293/K-562/placenta lysate
TP53RK = TP53RK (UniProt Q96S44); details: affinity matrix / lysate: Kinobeads, mixed HEK293/K-562/placenta lysate
WEE1 = WEE1 (UniProt P30291); details: affinity matrix / lysate: Kinobeads, mixed HEK293/K-562/placenta lysate
MAP2K5 = MAP2K5 (UniProt Q13163); details: affinity matrix / lysate: Kinobeads, mixed HEK293/K-562/placenta lysate
MAP2K3 = MAP2K3 (UniProt P46734); details: affinity matrix / lysate: Kinobeads, mixed HEK293/K-562/placenta lysate
MAP2K4 = MAP2K4 (UniProt P45985); details: affinity matrix / lysate: Kinobeads, mixed HEK293/K-562/placenta lysate
CSNK2A1 = CSNK2A1 (UniProt P68400)
KSR1 = KSR1 (UniProt Q8IVT5); details: affinity matrix / lysate: Kinobeads, mixed HEK293/K-562/placenta lysate
FGFR2 = FGFR2 (UniProt P21802); details: affinity matrix / lysate: Kinobeads, mixed HEK293/K-562/placenta lysate
EPHA4 = EPHA4 (UniProt P54764); details: affinity matrix / lysate: Kinobeads, mixed HEK293/K-562/placenta lysate
NEK1 = NEK1 (UniProt Q96PY6); details: affinity matrix / lysate: Kinobeads, mixed HEK293/K-562/placenta lysate
GSK3A = GSK3A (UniProt P49840); details: affinity matrix / lysate: Kinobeads, mixed HEK293/K-562/placenta lysate
CAMKK1 = CAMKK1 (UniProt Q8N5S9); details: affinity matrix / lysate: Kinobeads, mixed HEK293/K-562/placenta lysate
PIP4K2C = PIP4K2C (UniProt Q8TBX8); details: affinity matrix / lysate: Kinobeads, mixed HEK293/K-562/placenta lysate
[1] = affinity matrix / lysate: Lipid Kinobeads, mixed HeLa/Jurkat/K-562 lysate
[2] = affinity matrix / lysate: Kinobeads, mixed HEK293/K-562/placenta lysate

Chain of PI4KA (P42356 whole entry, looked up): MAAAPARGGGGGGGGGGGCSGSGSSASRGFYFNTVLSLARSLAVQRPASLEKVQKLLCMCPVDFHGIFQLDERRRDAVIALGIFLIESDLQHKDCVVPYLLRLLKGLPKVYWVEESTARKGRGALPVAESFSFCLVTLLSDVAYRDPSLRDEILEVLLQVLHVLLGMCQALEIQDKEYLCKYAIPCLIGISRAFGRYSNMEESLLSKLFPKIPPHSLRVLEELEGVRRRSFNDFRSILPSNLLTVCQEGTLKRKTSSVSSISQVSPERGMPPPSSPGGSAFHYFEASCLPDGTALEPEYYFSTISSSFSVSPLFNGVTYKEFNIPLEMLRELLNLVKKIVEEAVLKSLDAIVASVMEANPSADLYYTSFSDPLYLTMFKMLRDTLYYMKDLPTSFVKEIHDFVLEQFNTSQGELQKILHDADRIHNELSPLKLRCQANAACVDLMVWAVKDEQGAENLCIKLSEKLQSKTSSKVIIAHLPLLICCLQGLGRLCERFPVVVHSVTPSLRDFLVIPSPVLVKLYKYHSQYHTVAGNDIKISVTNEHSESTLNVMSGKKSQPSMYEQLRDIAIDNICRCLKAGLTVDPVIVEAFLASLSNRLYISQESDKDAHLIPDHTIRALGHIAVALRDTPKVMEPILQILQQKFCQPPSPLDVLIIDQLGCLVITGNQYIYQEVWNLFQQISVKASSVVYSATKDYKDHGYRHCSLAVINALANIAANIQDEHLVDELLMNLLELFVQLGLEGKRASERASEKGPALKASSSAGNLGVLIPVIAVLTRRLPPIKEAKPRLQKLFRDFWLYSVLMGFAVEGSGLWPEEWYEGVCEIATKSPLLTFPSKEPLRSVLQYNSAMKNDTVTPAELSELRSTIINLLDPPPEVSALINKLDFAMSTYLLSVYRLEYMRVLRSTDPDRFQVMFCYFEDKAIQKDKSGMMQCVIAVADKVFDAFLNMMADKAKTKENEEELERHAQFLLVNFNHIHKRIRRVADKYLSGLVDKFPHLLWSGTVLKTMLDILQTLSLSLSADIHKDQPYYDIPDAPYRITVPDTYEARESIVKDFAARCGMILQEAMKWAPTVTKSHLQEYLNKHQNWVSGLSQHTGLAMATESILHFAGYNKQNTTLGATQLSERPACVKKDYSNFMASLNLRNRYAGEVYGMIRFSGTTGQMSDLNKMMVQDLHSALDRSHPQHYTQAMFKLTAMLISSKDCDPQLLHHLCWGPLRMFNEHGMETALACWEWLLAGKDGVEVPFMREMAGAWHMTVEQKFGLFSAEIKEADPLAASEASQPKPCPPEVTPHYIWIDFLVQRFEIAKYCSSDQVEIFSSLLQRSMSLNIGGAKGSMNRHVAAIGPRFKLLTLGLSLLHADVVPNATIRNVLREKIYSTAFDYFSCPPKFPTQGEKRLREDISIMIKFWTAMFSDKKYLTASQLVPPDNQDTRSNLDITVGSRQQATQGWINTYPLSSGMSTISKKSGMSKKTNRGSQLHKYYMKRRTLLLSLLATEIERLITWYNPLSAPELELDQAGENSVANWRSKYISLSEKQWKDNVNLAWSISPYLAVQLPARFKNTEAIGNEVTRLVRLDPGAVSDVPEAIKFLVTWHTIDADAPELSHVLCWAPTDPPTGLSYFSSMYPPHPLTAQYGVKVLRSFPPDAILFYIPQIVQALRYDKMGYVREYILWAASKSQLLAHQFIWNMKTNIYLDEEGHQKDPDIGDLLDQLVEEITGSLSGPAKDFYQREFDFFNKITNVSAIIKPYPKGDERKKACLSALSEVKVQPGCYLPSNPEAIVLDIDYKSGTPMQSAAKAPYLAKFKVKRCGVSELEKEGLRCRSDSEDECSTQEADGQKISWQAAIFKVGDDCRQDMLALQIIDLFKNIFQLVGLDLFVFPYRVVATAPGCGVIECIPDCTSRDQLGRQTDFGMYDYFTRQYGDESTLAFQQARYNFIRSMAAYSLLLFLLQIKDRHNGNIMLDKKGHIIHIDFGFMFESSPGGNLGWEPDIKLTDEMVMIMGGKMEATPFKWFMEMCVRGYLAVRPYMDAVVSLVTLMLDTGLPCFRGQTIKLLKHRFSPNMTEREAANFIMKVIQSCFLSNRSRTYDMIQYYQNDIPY
Chain of CSNK2A1 (P68400 whole entry, looked up): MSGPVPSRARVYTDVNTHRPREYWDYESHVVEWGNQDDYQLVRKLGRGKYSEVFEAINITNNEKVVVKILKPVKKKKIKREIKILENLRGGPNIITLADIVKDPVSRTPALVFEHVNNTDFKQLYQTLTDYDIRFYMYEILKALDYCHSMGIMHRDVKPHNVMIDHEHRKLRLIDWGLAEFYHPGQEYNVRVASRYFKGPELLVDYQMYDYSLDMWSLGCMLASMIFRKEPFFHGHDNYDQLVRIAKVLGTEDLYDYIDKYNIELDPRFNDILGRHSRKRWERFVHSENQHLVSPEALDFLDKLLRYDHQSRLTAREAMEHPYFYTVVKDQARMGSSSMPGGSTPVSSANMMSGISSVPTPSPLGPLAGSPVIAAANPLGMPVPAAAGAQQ
Chain of CAMKK1 (Q8N5S9 whole entry, looked up): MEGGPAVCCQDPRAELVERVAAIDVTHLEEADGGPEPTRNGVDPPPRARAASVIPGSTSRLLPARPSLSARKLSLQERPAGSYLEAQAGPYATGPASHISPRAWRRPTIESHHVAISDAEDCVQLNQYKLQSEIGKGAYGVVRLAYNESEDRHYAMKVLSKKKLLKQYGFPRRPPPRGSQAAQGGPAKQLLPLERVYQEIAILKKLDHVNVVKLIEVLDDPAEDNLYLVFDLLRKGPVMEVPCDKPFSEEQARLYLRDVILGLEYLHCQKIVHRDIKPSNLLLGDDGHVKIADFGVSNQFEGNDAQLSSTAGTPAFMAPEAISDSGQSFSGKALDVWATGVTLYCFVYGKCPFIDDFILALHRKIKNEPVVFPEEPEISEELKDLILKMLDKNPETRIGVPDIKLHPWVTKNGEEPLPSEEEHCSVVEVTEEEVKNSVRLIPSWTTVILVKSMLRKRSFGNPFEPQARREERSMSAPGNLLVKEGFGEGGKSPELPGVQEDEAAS
Chain of MAP2K3 (P46734 whole entry): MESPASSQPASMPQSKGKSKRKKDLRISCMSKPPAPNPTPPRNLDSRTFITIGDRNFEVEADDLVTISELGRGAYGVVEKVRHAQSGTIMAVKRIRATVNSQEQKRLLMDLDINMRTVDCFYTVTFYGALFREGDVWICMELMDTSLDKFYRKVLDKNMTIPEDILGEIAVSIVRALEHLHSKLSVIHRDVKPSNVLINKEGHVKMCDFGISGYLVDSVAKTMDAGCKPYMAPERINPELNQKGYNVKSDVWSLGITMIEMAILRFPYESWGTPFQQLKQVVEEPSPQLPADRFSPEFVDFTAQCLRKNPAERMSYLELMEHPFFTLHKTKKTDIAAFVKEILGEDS
Chain of MELK (Q14680 whole entry, looked up): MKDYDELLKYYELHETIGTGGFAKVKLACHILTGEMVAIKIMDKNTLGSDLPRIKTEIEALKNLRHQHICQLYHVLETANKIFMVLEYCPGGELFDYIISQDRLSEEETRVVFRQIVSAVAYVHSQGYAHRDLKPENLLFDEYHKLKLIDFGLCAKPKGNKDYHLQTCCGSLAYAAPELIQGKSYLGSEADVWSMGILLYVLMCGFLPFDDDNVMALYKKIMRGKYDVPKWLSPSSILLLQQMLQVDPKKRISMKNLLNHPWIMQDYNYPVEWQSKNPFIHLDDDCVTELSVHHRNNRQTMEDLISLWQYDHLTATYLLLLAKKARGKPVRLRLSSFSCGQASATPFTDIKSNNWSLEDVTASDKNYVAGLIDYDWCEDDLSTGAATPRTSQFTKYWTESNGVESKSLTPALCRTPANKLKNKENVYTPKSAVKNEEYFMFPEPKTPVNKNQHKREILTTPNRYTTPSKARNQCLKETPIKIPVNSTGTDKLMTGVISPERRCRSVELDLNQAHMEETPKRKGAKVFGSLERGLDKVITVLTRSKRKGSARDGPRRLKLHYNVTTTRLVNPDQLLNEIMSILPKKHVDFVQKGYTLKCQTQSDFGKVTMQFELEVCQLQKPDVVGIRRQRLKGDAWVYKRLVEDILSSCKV
Chain of IKBKE (Q14164 whole entry): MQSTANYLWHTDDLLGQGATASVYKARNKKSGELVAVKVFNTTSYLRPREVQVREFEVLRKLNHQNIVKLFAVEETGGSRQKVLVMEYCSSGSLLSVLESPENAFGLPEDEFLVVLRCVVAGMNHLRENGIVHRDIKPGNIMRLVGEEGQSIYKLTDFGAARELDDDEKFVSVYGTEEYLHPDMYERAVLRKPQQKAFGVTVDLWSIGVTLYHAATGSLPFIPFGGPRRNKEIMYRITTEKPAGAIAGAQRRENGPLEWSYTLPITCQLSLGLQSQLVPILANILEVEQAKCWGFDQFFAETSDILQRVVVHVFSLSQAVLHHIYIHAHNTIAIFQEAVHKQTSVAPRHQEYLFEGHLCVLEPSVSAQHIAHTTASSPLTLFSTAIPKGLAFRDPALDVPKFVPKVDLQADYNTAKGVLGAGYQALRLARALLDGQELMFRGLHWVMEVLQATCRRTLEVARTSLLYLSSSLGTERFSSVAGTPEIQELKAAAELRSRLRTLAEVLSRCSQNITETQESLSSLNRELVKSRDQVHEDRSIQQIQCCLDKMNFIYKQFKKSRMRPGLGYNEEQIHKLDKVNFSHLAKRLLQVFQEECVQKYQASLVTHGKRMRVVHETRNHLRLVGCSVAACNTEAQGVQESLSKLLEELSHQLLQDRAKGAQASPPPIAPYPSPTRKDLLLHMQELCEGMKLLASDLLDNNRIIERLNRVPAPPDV
Chain of TP53RK (Q96S44 whole entry): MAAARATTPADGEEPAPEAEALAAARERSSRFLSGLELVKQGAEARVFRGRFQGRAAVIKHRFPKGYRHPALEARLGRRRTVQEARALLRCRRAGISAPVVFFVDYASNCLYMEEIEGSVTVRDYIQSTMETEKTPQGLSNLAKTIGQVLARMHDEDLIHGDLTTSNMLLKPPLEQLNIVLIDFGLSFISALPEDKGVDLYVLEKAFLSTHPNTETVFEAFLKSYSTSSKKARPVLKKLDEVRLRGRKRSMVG

| apparent dissociation constant (-log10 M) (MELK) | apparent dissociation constant (-log10 M) (ERN1) | apparent dissociation constant (-log10 M) (PIP5K3) | apparent dissociation constant (-log10 M) (MAP3K4) | apparent dissociation constant (-log10 M) (MAP3K15) | apparent dissociation constant (-log10 M) (RPS6KB1) | apparent dissociation constant (-log10 M) (MAP2K1) | apparent dissociation constant (-log10 M) (PIK3CG) | apparent dissociation constant (-log10 M) (MAST2) | apparent dissociation constant (-log10 M) (IKBKE) | apparent dissociation constant (-log10 M) (EPHA1) | apparent dissociation constant (-log10 M) (PI4KA; [1]) | apparent dissociation constant (-log10 M) (EIF2AK4) | apparent dissociation constant (-log10 M) (TP53RK) | apparent dissociation constant (-log10 M) (WEE1) | apparent dissociation constant (-log10 M) (MAP2K5) | apparent dissociation constant (-log10 M) (MAP2K3) | apparent dissociation constant (-log10 M) (MAP2K4) | apparent dissociation constant (-log10 M) (CSNK2A1; [2]) | apparent dissociation constant (-log10 M) (CSNK2A1; [1]) | apparent dissociation constant (-log10 M) (KSR1) | apparent dissociation constant (-log10 M) (FGFR2) | apparent dissociation constant (-log10 M) (EPHA4) | apparent dissociation constant (-log10 M) (NEK1) | apparent dissociation constant (-log10 M) (GSK3A) | apparent dissociation constant (-log10 M) (CAMKK1) | apparent dissociation constant (-log10 M) (PIP4K2C) | apparent dissociation constant (-log10 M) (PI4KA; [2]) | SMILES |
| --- | --- | --- | --- | --- | --- | --- | --- | --- | --- | --- | --- | --- | --- | --- | --- | --- | --- | --- | --- | --- | --- | --- | --- | --- | --- | --- | --- | --- |
| < 6 | < 6 | < 6 | < 6 | < 6 | < 6 | < 6 | < 6 | < 6 | < 6 | < 6 | < 6 | < 6 | < 6 | < 6 | < 6 | < 6 | < 6 | < 6 | < 6 | < 6 | < 6 | < 6 | < 6 | < 6 | < 6 | < 6 |  | CCNC(=O)Nc1ccc(-c2nc(N3CCOC[C@@H]3C)c3c(n2)C(C)(C)S(=O)(=O)C3)cc1 [CZ415] |
| < 6 | < 6 | < 6 | < 6 | < 6 | < 6 | < 6 | < 6 | < 6 | < 6 | < 6 | < 6 | < 6 | < 6 | < 6 | < 6 | < 6 | < 6 | < 6 | < 6 | < 6 | < 6 | < 6 | < 6 | < 6 | < 6 | < 6 | < 6 | COc1ccc(-c2ccc3c(N4CCOC[C@@H]4C)nc(N4CCOC[C@@H]4C)nc3n2)cc1CO [AZD8055] |
